Measurements published in publication PMC5727127, “H3K14ac is linked to methylation of H3K9 by the triple Tudor domain of SETDB1” (Nature Communications, 2017).

Assays:
SETDB1 3TD W358A (TD3) = target: T1, SETDB1 3TD W358A (TD3) (Homo sapiens, UniProt Q15047, W358A); assay: ITC binding of 3TD W358A to H3 peptides; settings: W358A vs wildtype
T1 construct: cloned into the pET28a-MHL (residues 190–410), pGEX6P2, and pGEX-4T-1 (residues 197–403) vectors; 6×His; made in house; host or cells: E. coli BL21 derivative (SGC) with pRARE
Protocol: (§1) ITC experiments were carried out at 25 °C on a VP-ITC calorimeter (MicroCal). Protein and peptide were kept in an identical buffer of 20 mM Tris/HCl pH 7.0 and 150 mM NaCl. ITC measurements were carried out with protein and ligand concentrations ranging from 50 to 100 μM and 1–2 mM, respectively. Binding isotherms were analyzed by nonlinear least-squares fitting of the data using Microcal ORIGIN software (Microcal) using a one-site binding model.

[1] = system: SETDB1 3TD, GST-tagged, wildtype; assay: Modified histone peptide array binding of 3TD wildtype; settings: GST-tagged 3TD, modified histone peptide arrays
Protocol: (§2) Experiments to determine the binding specificity of 3TD wildtype and mutants were performed using CelluSpots peptide arrays (MODified Histone Peptide Array, Active Motif), as described previously, in 20 mM HEPES pH 7.5, 100 mM KCl, 1 mM EDTA, 0.2 mM DTT, and 10% glycerol. All peptide array binding studies were conducted at least in two technical repeats. Annotations of all spots are given in Supplementary Table 2. The amounts of GST-fused Tudor proteins used in peptide array binding and western blot analyses ranged from 0.5 to 100 nM. For methylation analysis, MODified Histone Peptide arrays (Active Motif) were incubated with 20 nM SETDB1 in buffer (50 mM Tris/HCl pH 9.0, 4 mM DTT, 5 mM MgCl2) supplemented with 0.38 µM radioactively labeled [methyl-3H]-AdoMet (Perkin Elmer) for 2 h at room temperature. The arrays were then washed 5 times with wash buffer (100 mM NH4HCO3 and 1% SDS), incubated in Amplify NAMP100 (GE Healthcare) for 5 min, and then exposed to Hyperfilm TM ECL high-performance chemiluminescence film (GE Healthcare) in the dark at −80 °C for 1–7 days.

SETDB1 3TD Y268A = assay: Modified histone peptide array binding of 3TD Y268A; settings: Y268A vs wildtype; peptide array and ITC assays
Protocol: as §2

SETDB1 3TD W358A = assay: Modified histone peptide array binding of 3TD W358A; settings: W358A vs wildtype
Protocol: as §2

SETDB1 3TD F332A = assay: Modified histone peptide array binding of 3TD F332A; settings: replacement of F332 by alanine; peptide array and ITC
Protocol: as §2

SETDB1 3TD Y268A (TD2) = target: T2, SETDB1 3TD Y268A (TD2) (Homo sapiens, UniProt Q15047, Y268A); assay: ITC binding of 3TD Y268A to H3 peptides; settings: Fig. 2c, Y268A relative to wildtype
T2 construct: cloned into the pET28a-MHL (residues 190–410), pGEX6P2, and pGEX-4T-1 (residues 197–403) vectors; 6×His; made in house; host or cells: E. coli BL21 derivative (SGC) with pRARE
Protocol: as §1

SETDB1 3TD, wildtype = target: T3, SETDB1 3TD, wildtype (Homo sapiens, UniProt Q15047); assay: NMR chemical shift perturbation binding to 3TD; settings: 15N HSQC, 25 °C, pH 7.0, 150 mM NaCl
T3 construct: cloned into the pET28a-MHL (residues 190–410), pGEX6P2, and pGEX-4T-1 (residues 197–403) vectors; 6×His; made in house; host or cells: E. coli BL21 derivative (SGC) with pRARE
Protocol: NMR experiments were collected on a Bruker Avance 500-MHz spectrometer equipped with a cryogenic probe. Chemical shift perturbation experiments were carried out using uniformly ^15N-labeled wildtype 3TD protein in 20 mM Tris/HCl pH 7.0 and 150 mM NaCl. ^1H, ^15N HSQC spectra were recorded at 25 °C in the presence of increasing concentrations of histone tail peptides. K d values were calculated by a nonlinear least-squares analysis in Kaleidagraph using the equation Δδ=ΔδmaxcL+cP+Kd-cL+cP+Kd^2-4cLcP∕2cP, where c L is the concentration of the peptide, c P is the concentration of the protein, Δδ is the observed normalized chemical shift change, and Δδ max is the normalized chemical shift change at saturation, calculated as Δδ=ΔδH^2+ΔδN∕5^2, where δ is the chemical shift in p.p.m.
Supplementary Figure 1: Peptide binding of 3TD. (a) Titration of 3TD binding to peptide arrays. Note the specific binding to H3K9me1/2/3-K14ac double modified […]
concentration (100 nM). (b) ITC analysis of 3TD binding to single modified H3 tail […]
peptides. (c) NMR chemical shift perturbation experiments carried out to detect potentially weak binding of 3TD to H3K14ac, H3K9me3 and unmodified H3. Weak binding of H3K14ac could be detected and the […]
H3 was observed. Panel a relates to Fig. 1, panels b and c to Fig. 2.
(1 picture or pasted object on this page, not shown here)

HEK293 cells [2] = assay: Western blot of histone modifications after HDAC inhibitor treatment; format: cell-based, human; settings: HEK293, 48 h, 0.4 mM TSA or 5 mM sodium butyrate; for K9 methylation content of H3 from treated cells: western blot anti-K9me; for H3K14ac signal of H3 from treated cells: western blot anti-K14ac
Protocol: (§3) Native histones were isolated by acid extraction[55] from HEK293 cells, and recombinant histone H3 was purchased from New England Biolabs. For the experiment with HDAC inhibitors, cells were treated for 48 h with 0.4 mM TSA or 5 mM sodium butyrate. Five micrograms of native histones and matching amount of recombinant H3 were electrophoresed on 18% SDS-PAGE and transferred onto nitrocellulose membranes. The membrane was then blocked in 5% milk in TBST and incubated with purified GST-tagged 3TD, followed by the anti-GST (GE Healtcare 27457701A, dilution 1:5000) and anti-goat antibody (Sigma A4174, dilution 1:10000). The amount of GST-fused Tudor protein used in western blot analyses was 100 nM. All experiments were performed in duplicates or triplicates. In the western blots, following antibodies were used: anti-K14ac (Millipore MABE351, dilution for checking specificity: 1:2000 or 1:1000; for western blot: 1:500), anti-H3K9me3 (Abcam ab8898, dilution 1:2000), anti-H3K9me2 (Abcam ab1220, dilution 1:1000), and anti-H3K4me3 (Abcam ab8580, dilution 1:2000). For specificity analysis of antibodies, see Supplementary Fig. 13. Secondary antibodies were anti-rabbit IgG HRP (GE Healtcare NA934, dilution 1:5000) and anti-mouse IgG HRP (GE Healtcare NXA931, dilution 1:5000). Native histone and nucleosome pull-down experiments were done at least in two biological repeats. All antibodies were used following the manufacturer’s recommendations. Uncropped gel images are shown in Supplementary Fig. 14.

HEK293 cells [3] = assay: Far-western blot of 3TD binding to histones from HDAC inhibitor treated cells; format: cell-based, human; settings: HEK293, 48 h, 0.4 mM TSA or 5 mM sodium butyrate, 100 nM GST-3TD
Protocol: as §3, with “All antibodies were used following the manufacturer’s recommendations. Uncropped gel images are shown in Supplementary Fig. 14.” left out

Row | Compound | peptide array binding, 3TD [1] | change of binding, Y268A (SETDB1 3TD Y268A) | change of peptide array binding, W358A (SETDB1 3TD W358A) | fold reduction of affinity, W358A (SETDB1 3TD W358A (TD3)) | K9 methylation content of H3 from treated cells (HEK293 cells [2]) | H3K14ac signal of H3 from treated cells (HEK293 cells [2]) | 3TD binding to histones from treated cells (HEK293 cells [3]) | also measured
1 | C[C@H](NC(=O)[C@@H](NC(=O)[C@H](CCC(N)=O)NC(=O)[C@@H](N)CCCCN)[C@@H](C)O)C(=O)N[C@@H](CCCNC(=N)N)C(=O)N[C@@H](CCCC[N+](C)(C)C)C(=O)N[C@@H](CO)C(=O)N[C@H](C(=O)NCC(=O)NCC(=O)N[C@@H](CCCCN)C(=O)N[C@@H](C)C(=O)N1CCC[C@H]1C(=O)N[C@@H](CCCNC(=N)N)C(=O)N[C@@H](CCCCN)C(=O)N[C@@H](CCC(N)=O)C(=O)O)[C@@H](C)O [H3K9me3] |  |  |  |  |  |  |  | binding detected by NMR (SETDB1 3TD, wildtype): no detectable binding
2 | CCCC(=O)[O-].[Na+] [sodium butyrate] |  |  |  |  | did not change | increased H3K14ac signal | increased 3TD binding | 
3 | CC(/C=C/C(=O)NO)=C\[C@@H](C)C(=O)c1ccc(N(C)C)cc1 [trichostatin A] |  |  |  |  | did not change | increased H3K14ac signal | increased 3TD binding | 

The next lines start with results.

Row | peptide array binding, 3TD [1] | change of binding, Y268A (SETDB1 3TD Y268A) | change of peptide array binding, W358A (SETDB1 3TD W358A) | Compound | fold reduction of affinity, W358A (SETDB1 3TD W358A (TD3)) | K9 methylation content of H3 from treated cells (HEK293 cells [2]) | H3K14ac signal of H3 from treated cells (HEK293 cells [2]) | 3TD binding to histones from treated cells (HEK293 cells [3]) | also measured
4 | strong and selective binding | not affected | loss | CNCCCC[C@H](NC(=O)[C@H](CCCNC(=N)N)NC(=O)[C@H](C)NC(=O)[C@@H](NC(=O)[C@H](CCC(N)=O)NC(=O)[C@@H](N)CCCCN)[C@@H](C)O)C(=O)N[C@@H](CO)C(=O)N[C@H](C(=O)NCC(=O)NCC(=O)N[C@@H](CCCCNC(C)=O)C(=O)N[C@@H](C)C(=O)N1CCC[C@H]1C(=O)N[C@@H](CCCNC(=N)N)C(=O)N[C@@H](CCCCN)C(=O)N[C@@H](CCC(N)=O)C(=O)O)[C@@H](C)O [H3K9me1/K14ac] |  |  |  |  | loss of binding in ITC, W358A (SETDB1 3TD W358A (TD3)): completely lost
5 | strong and selective binding | not affected | strong reduction in binding | CC(=O)NCCCC[C@H](NC(=O)CNC(=O)CNC(=O)[C@@H](NC(=O)[C@H](CO)NC(=O)[C@H](CCCCN(C)C)NC(=O)[C@H](CCCNC(=N)N)NC(=O)[C@H](C)NC(=O)[C@@H](NC(=O)[C@H](CCC(N)=O)NC(=O)[C@@H](N)CCCCN)[C@@H](C)O)[C@@H](C)O)C(=O)N[C@@H](C)C(=O)N1CCC[C@H]1C(=O)N[C@@H](CCCNC(=N)N)C(=O)N[C@@H](CCCCN)C(=O)N[C@@H](CCC(N)=O)C(=O)O [H3K9me2/K14ac] | 18 fold |  |  |  | change of binding, F332A (SETDB1 3TD F332A): strong reduction in affinity
6 | strong and selective binding | clear reduction in affinity | only moderately reduced | CC(=O)NCCCC[C@H](NC(=O)CNC(=O)CNC(=O)[C@@H](NC(=O)[C@H](CO)NC(=O)[C@H](CCCC[N+](C)(C)C)NC(=O)[C@H](CCCNC(=N)N)NC(=O)[C@H](C)NC(=O)[C@@H](NC(=O)[C@H](CCC(N)=O)NC(=O)[C@@H](N)CCCCN)[C@@H](C)O)[C@@H](C)O)C(=O)N[C@@H](C)C(=O)N1CCC[C@H]1C(=O)N[C@@H](CCCNC(=N)N)C(=O)N[C@@H](CCCCN)C(=O)N[C@@H](CCC(N)=O)C(=O)O [H3K9me3/K14ac] | 2 fold |  |  |  | relative binding affinity, Y268A (SETDB1 3TD Y268A (TD2)): specific loss in binding
